Laboratory results published in US6916791B2, “Androgen derivatives and uses thereof” (Strakan Limited, priority 1999, dated 2005).

How the values were obtained:
[1] = orchiectomised male rats
[2] = mice; compared with testosterone administered by the same route; cited from earlier work

C[C@]12CC[C@H]3[C@@H](CCC4=CC(=O)CC[C@@]43C)[C@@H]1CC[C@@H]2O[C@@H]1O[C@H](CO)[C@@H](O)[C@H](O)[C@H]1O [testosterone glucoside, Testosterone-17-β-1′-β′-D-glucopyranose]
bioavailability, oral ([1]; 1.56 mg orally daily for 6 days, serum testosterone 4 hours after final dose): bioavailable when given orally | metabolism to testosterone ([1]; oral or intramuscular, daily for 6 days): readily metabolised to testosterone | biological activity in vivo [2]: very little activity in vivo, and certainly less than testosterone
